Test results as given in US20050112199A1, “Therapeutic regimens for administering drug combinations” (priority 2003, published 2005).
Read-outs that look alike come from different tables or passages of the source.

Tests used:
[1] = PK study of amoxapine and prednisolone administered orally to humans; settings: amoxapine/prednisolone combination PK study, oral
[2] = monotherapy, cited from earlier work
[3] = PK study of paroxetine and prednisolone administered orally to humans; type: in vivo, human; settings: paroxetine/prednisolone combination PK study, oral

Clc1ccc2c(c1)C(N1CCNCC1)=Nc1ccccc1O2 [Amoxapine]
Mean Tmax ([1]; 100 mg): 2.4 h
Mean elimination half life ([1]; 100 mg): 9.7 h

CCCC1O[C@@H]2C[C@H]3[C@@H]4CCC5=CC(=O)C=C[C@]5(C)[C@H]4[C@@H](O)C[C@]3(C)[C@]2(C(=O)CO)O1 (stereo partly shown) [Budesonide]
Mean Tmax ([2]; inhaled, 200 μg): 0.5 h
Mean elimination half life (Hours) ([2]; inhaled, 200 μg): ca. 2 Hours

OCCN(CCO)c1nc(N2CCCCC2)c2nc(N(CCO)CCO)nc(N3CCCCC3)c2n1 [Dipyridamole, 2,6-bis(diethanolamino)-4,8-dipiperidinopyrimido(5,4-d)pyrimidine]
Mean Tmax ([2]; oral, 25 mg): 0.75 h
Mean elimination half life ([2]; oral, 25 mg): 10 h

CNCCC=C1c2ccccc2CCc2ccccc21 [Nortriptyline]
Mean Tmax ([2]; oral, 25 mg): 8 h
Mean elimination half life ([2]; oral, 25 mg): 16 h

Fc1ccc([C@@H]2CCNC[C@H]2COc2ccc3c(c2)OCO3)cc1 [Paroxetine]
Mean Tmax ([3]; 20 mg): 7 h
Mean elimination half life ([3]; 20 mg): 20.2 h

C[C@]12C=CC(=O)C=C1CC[C@@H]1[C@@H]2[C@@H](O)C[C@@]2(C)[C@H]1CC[C@]2(O)C(=O)CO [Prednisolone]
Mean Tmax ([3]; 3 mg): 1.9 h
Mean elimination half life ([3]; 3 mg): 2.7 h
Mean Tmax ([2]; oral, 3 mg): 1.9 h
Mean elimination half life ([2]; oral, 3 mg): 2.7 h
Mean Tmax ([1]; 3 mg): 1.9 h
Mean elimination half life ([1]; 3 mg): 4.5 h
